# Experimental data: patent publication US9902728B2, “Pyrrolo and pyrazolopyrimidines as ubiquitin-specific protease 7 inhibitors” (Forma Therapeutics, Inc., priority 2014, dated 2018)
# Read-outs that look alike come from different tables or passages of the source.
# Molecular target: T1, USP7 (Homo sapiens, UniProt Q93009)
# T1 construct: USP7, construct USP7 (208-1102) 6*His, Viva Biotech; 6xHis (C); purchased Viva Biotech
# Experiment: USP7 Assay A (Ubitquin-Rhodamine 110 Assay)
# Format: biochemical
# Details: read-out: USP7_IC50
# Procedure, shortened: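 Enzyme and compound sat together for 30 min before Ub-Rh110 was added, in buffer of 20 mM Tris-HCl (pH 8.0), 1 mM GSH, 0.03% BGG and 0.01% Triton X-100.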
# [1] = USP7 assay A and B (table does not say which assay per compound)
# [2] = USP7 activity in USP7 assay A and B (table does not say which assay per compound)
# T1 sequence (Q93009 208-1102): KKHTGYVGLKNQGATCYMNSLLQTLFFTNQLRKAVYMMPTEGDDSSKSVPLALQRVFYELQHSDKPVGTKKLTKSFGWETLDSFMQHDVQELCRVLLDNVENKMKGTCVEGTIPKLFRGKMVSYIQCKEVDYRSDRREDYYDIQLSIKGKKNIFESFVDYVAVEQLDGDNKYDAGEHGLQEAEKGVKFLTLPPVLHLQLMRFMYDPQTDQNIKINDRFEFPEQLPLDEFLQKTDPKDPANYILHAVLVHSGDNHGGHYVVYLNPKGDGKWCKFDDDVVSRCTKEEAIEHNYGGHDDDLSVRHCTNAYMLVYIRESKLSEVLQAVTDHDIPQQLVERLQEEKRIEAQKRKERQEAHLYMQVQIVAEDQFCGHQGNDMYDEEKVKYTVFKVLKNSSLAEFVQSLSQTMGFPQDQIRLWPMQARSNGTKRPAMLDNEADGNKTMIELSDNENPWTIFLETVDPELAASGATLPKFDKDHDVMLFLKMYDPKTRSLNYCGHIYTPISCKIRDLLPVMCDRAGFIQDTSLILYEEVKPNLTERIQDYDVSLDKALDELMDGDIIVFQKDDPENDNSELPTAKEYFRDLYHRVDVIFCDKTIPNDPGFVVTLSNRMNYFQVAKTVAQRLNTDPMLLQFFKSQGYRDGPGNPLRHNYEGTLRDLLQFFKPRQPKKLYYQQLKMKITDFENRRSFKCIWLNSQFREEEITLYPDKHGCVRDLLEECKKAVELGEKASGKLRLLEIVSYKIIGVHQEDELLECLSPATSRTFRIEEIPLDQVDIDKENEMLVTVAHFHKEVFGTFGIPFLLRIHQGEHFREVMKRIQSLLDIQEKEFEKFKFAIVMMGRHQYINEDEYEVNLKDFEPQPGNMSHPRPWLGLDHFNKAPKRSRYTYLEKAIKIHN
Compound,IC50 [1] [nM],IC50 [2] [nM]
CNC1CCN(c2ccc(-c3ccc(-n4ncc5c(=O)n(CC6(O)CCN(C(=O)C7CC7)CC6)cnc54)cc3)cc2)C1 (stereo not shown) [Compound I-688],200 to 1000,–
O=C(c1ccc(F)cc1)N1CCC(O)(Cn2cnc3c(cnn3-c3ccc(-n4cc5c(n4)CCOC5)cc3)c2=O)CC1 [Compound I-976],–,1000 to 10000
COc1ccc(C(=O)N2CCC(O)(C(C)n3cnc4c(cnn4-c4ccc(F)cc4)c3=O)CC2)cc1 (stereo not shown) [Compound I-614],> 10000,–
O=C(c1ccc(Oc2ccccc2)cc1)N1CCC(O)(Cn2cnc3c(cnn3-c3ccc(F)cc3)c2=O)CC1 [Compound I-66],200 to 1000,–
C[C@@H](CC(=O)N1CCC(O)(Cn2cnc3c(cnn3-c3ccccc3)c2=O)CC1)n1cccn1 [Compound I-176],1000 to 10000,–
O=C(CC(c1ccccc1)C(F)F)N1CCC(O)(Cn2cnc3c(cnn3-c3ccccc3)c2=O)CC1 (stereo not shown) [Compound I-1102],< 200,–
O=C(C1CCC(Oc2ccccn2)CC1)N1CCC(O)(Cn2cnc3c(cnn3-c3ccc(F)cc3)c2=O)CC1 (stereo not shown) [Compound I-545],–,200 to 1000
O=C(C1CCC(Oc2cccc(N3CCC3)n2)CC1)N1CCC(O)(Cn2cnc3c(cnn3-c3ccc(F)cc3)c2=O)CC1 (stereo not shown) [Compound I-1018],–,< 200
O=C(C1CCC(OC(F)F)CC1)N1CCC(O)(Cn2cnc3c(cnn3-c3ccc(F)cc3)c2=O)CC1 (stereo not shown) [Compound I-1112],–,1000 to 10000
O=C(c1cnc(C2CC2)o1)N1CCC(O)(Cn2cnc3c(cnn3-c3ccc(-n4cc(CO)cn4)cc3)c2=O)CC1 [Compound I-1684],–,< 200
CO[C@@H]1CCN(c2ccc(-n3ncc4c(=O)n(CC5(O)CCN(C(=O)N(C)C)CC5)cnc43)cc2)C1 [Compound I-1138],1000 to 10000,–
O=C(c1ccc(-c2cnn3c2OCC3)cc1)N1CCC(O)(Cn2cnc3c(cnn3-c3ccc(F)cc3)c2=O)CC1 [Compound I-550],–,200 to 1000
CN1CC[C@@H](Oc2ccc(-c3ccc(-n4ncc5c(=O)n(CC6(O)CCN(C(=O)C7CC7)CC6)cnc54)cc3)cc2)C1 [Compound I-679],–,< 200
O=C(N1CCC(Oc2ccccn2)CC1)N1CCC(O)(Cn2cnc3c(cnn3-c3ccc(F)cc3)c2=O)CC1 [Compound I-610],–,1000 to 10000
"Cn1ccc2c(=O)n(CC3(O)CCN(C(=O)CC(C(F)F)n4ccc(F)n4)CC3)cnc21 (single isomer, unassigned) [Compound I-1696]",–,> 10000
Cc1ccc(-n2ncc3c(=O)n(CC4(O)CCN(C(=O)c5ccc(Oc6ncccn6)cc5)CC4)cnc32)cc1 [Compound I-1063],200 to 1000,–
C[C@@]1(O)CCN(c2ccc(-n3ncc4c(=O)n(CC5(O)CCN(C(=O)C[C@H](C(F)F)n6cccn6)CC5)cnc43)cc2)C1 [Compound I-834],–,1000 to 10000
O=C(c1ccc(N2CCCN3CCCC3C2)cc1)N1CCC(O)(Cn2cnc3c(cnn3-c3ccc(F)cc3)c2=O)CC1 (stereo not shown) [Compound I-1683],–,1000 to 10000
O=C(C[C@@H](c1ccccc1)C(F)F)N1CCC(O)(Cn2cnc3c(cnn3-c3ccccc3)c2=O)CC1 [Compound I-1103],< 200,–
O=C(c1cccc(CN2CCCC2)c1)N1CCC(O)(Cn2cnc3c(cnn3-c3ccc(Cl)cc3)c2=O)CC1 [Compound I-1127],1000 to 10000,–
"O=C(OCCCN1CCCC1)N1CCC(O)(Cn2cnc3c(cnn3-c3ccc(F)cc3)c2=O)CC1 [Compound I-486, 3-(Pyrrolidin-1-yl)propyl 4-((1-(4-fluorophenyl)-4-oxo-1,4-dihydro-5H-pyrazolo[3,4-d]pyrimidin-5-yl)methyl)-4-hydroxypiperidine-1-carboxylate]",–,1000 to 10000

Compound,IC50 [1] [nM],IC50 [2] [nM]
O=C(C1CC1)N1CCC(O)(Cn2cnc3c(cnn3-c3cccc(Nc4ccncc4)c3)c2=O)CC1 [Compound I-1232],1000 to 10000,–
C[C@H](CC(=O)N1CCC(O)(Cn2cnc3c(cnn3-c3ccc(F)cc3)c2=O)CC1)n1cc2c(n1)CCC2 [Compound I-520],> 10000,–
N#Cc1cccc(COc2ccc(-n3ncc4c(=O)n(CC5(O)CCN(C(=O)c6ccc(F)cc6)CC5)cnc43)cc2)c1 [Compound I-1318],1000 to 10000,–
CN1CCCCC1COc1ccc(-n2ncc3c(=O)n(CC4(O)CCN(C(=O)c5ccc(F)cc5)CC4)cnc32)cc1 (stereo not shown) [Compound I-1313],200 to 1000,–
COc1ccc(-n2ncc3c(=O)n(C(C)C4(O)CCN(C(=O)c5ccc(F)cc5)CC4)cnc32)cc1 (stereo not shown) [Compound I-624],200 to 1000,–
O=C(C[C@H](C(F)F)n1cccn1)N1CCC(O)(Cn2cnc3c(cnn3-c3ccc(-c4ccccc4)cc3)c2=O)CC1 [Compound I-645],–,200 to 1000
"C[S+]([O-])c1ccc(-n2ncc3c(=O)n(CC4(O)CCN(C(=O)c5ccc(F)cc5)CC4)cnc32)cc1 (single isomer, unassigned) [Compound I-995, 5-((1-(4-fluorobenzoyl)-4-hydroxypiperidin-4-yl)methyl)-1-(4-(methylsulfinyl)phenyl)-1H-pyrazolo[3,4-d]pyrimidin-4(5H)-one]",1000 to 10000,–
O=C(Nc1ccc(-n2ncc3c(=O)n(CC4(O)CCN(C(=O)C5CC5)CC4)cnc32)cc1)C1CC1 [Compound I-1377],1000 to 10000,–
O=C(c1ccccc1)N1CCC(O)(Cn2cnc3c(cnn3-c3ccc(-c4ccccc4)c(CO)c3)c2=O)CC1 [Compound I-665],1000 to 10000,–
O=C(C1CC1)N1CCC(O)(Cn2cnc3c(cnn3-c3ccc(N4CCC(O)C4)cc3)c2=O)CC1 (stereo not shown) [Compound I-1655],–,1000 to 10000
O=C(C1CCC(Oc2ccc(F)cn2)CC1)N1CCC(O)(Cn2cnc3c(cnn3-c3ccccc3)c2=O)CC1 (stereo not shown) [Compound I-744],–,200 to 1000
CN(C)C(=O)Nc1ccc(-n2ncc3c(=O)n(CC4(O)CCN(C(=O)C5CC5)CC4)cnc32)cc1 [Compound I-492],1000 to 10000,–
C[C@H](CC(=O)N1CCC(O)(Cn2cnc3c(cnn3-c3ccccc3)c2=O)CC1)n1cccc1 [Compound I-177],< 200,–
CC1(C(=O)N2CCC(O)(Cn3cnc4c(cnn4-c4ccccc4)c3=O)CC2)CC1 [Compound I-271],1000 to 10000,–
O=C(C1CC1)N1CCC(O)(Cn2cnc3c(cnn3-c3cccc(NCCN4CCOCC4)c3)c2=O)CC1 [Compound I-1194],1000 to 10000,–
Cn1ccc(Oc2ccc(C(=O)N3CCC(O)(Cn4cnc5c(cnn5-c5ccc(F)cc5)c4=O)CC3)cc2)n1 [Compound I-719],1000 to 10000,–
C[C@@H](CC(=O)N1CCC(O)(Cn2cnc3c(cnn3-c3ccc(-c4ccc(F)cc4)cc3)c2=O)CC1)n1cccn1 [Compound I-654],> 10000,–
O=C(c1ccnn1Cc1ccccc1)N1CCC(O)(Cn2cnc3c(cnn3-c3ccc(F)cc3)c2=O)CC1 [Compound I-541],–,200 to 1000
CN1CC2CC1CN2c1ccc(C(=O)N2CCC(O)(Cn3cnc4c(cnn4-c4ccc(F)cc4)c3=O)CC2)cc1 (stereo not shown) [Compound I-604],–,1000 to 10000
O=C(C1CCC(NC2CC2)CC1)N1CCC(O)(Cn2cnc3c(cnn3-c3ccc(F)cc3)c2=O)CC1 (stereo not shown) [Compound I-769],–,200 to 1000
C=CC(=O)NC1CCC(C(=O)N2CCC(O)(Cn3cnc4c(cnn4-c4ccc(F)cc4)c3=O)CC2)CC1 (stereo not shown) [Compound I-576],1000 to 10000,–

Compound,IC50 [1] [nM],IC50 [2] [nM]
C[C@@H](n1cnc2c(cnn2-c2ccc(F)cc2)c1=O)C1(O)CCN(C(=O)c2ccc(F)cc2)CC1 [Compound I-44],1000 to 10000,–
CC1(C(=O)N2CCC(O)(Cn3cnc4c(cnn4-c4ccc(-n5cccn5)cc4)c3=O)CC2)CC1 [Compound I-781],–,200 to 1000
O=C(c1ccc(F)cc1)N1CCC(O)(Cn2cnc3c(cnn3-c3ccc(-n4ncc5c4CCOC5)cc3)c2=O)CC1 [Compound I-820],–,200 to 1000
Cc1nnc(-c2ccc(C(=O)N3CCC(O)(Cn4cnc5c(cnn5-c5ccc(F)cc5)c4=O)CC3)cc2)o1 [Compound I-911],1000 to 10000,–
O=C(C1CC1)N1CCC(O)(Cn2cnc3c(cnn3-c3ccc(CN4CCCCC4)cc3)c2=O)CC1 [Compound I-431],1000 to 10000,–
Cc1ccc(-n2ncc3c(=O)n(CC4(O)CCN(C(=O)c5ccc(OC6CCOCC6)cc5)CC4)cnc32)cc1 [Compound I-1144],1000 to 10000,–
Cc1ncc(C(=O)N2CCC(O)(Cn3cnc4c(cnn4-c4ccc(-n5cc(Cl)cn5)cc4)c3=O)CC2)o1 [Compound I-1733],–,< 200
C[C@@H](CC(=O)N1CCC(O)(Cn2cnc3c(cnn3-c3ccc(N4CC[C@@](C)(O)C4)cc3)c2=O)CC1)n1cccn1 [Compound I-838],–,1000 to 10000
O=C(c1cnc(C2CC2)o1)N1CCC(O)(Cn2cnc3c(cnn3-c3ccc(F)cc3)c2=O)CC1 [Compound I-314],200 to 1000,–
C[C@@H](CC(=O)N1CCC(O)(Cn2cnc3c(cnn3-c3ccc(-c4ccccc4)cc3)c2=O)CC1)n1cccn1 [Compound I-649],200 to 1000,–
N#Cc1ccc(OC2CCC(C(=O)N3CCC(O)(Cn4cnc5c(cnn5-c5ccc(F)cc5)c4=O)CC3)CC2)nc1 (stereo not shown) [Compound I-1014],–,200 to 1000
NC(=O)c1cccc(C(=O)N2CCC(O)(Cn3cnc4c(cnn4-c4ccccc4)c3=O)CC2)c1 [Compound I-172],1000 to 10000,–
O=C(C[C@@H](C(F)F)n1ccc(F)n1)N1CCC(O)(Cn2cnc3c(cnn3-c3ccc(F)cc3)c2=O)CC1 [Compound I-542],–,< 200
O=C(c1ccccc1)N1CC[C@](O)(Cn2cnc3c(cnn3-c3ccccc3)c2=O)[C@H](F)C1 [Compound I-469],1000 to 10000,–
O=C(C1CCC(Oc2cccc(F)n2)CC1)N1CCC(O)(Cn2cnc3c(cnn3-c3ccc(F)cc3)c2=O)CC1 (stereo not shown) [Compound I-740],–,200 to 1000
CC1(C(=O)N2CCC(O)(Cn3cnc4c(cnn4-c4ccc(-c5cnn(C(F)F)c5)cc4)c3=O)CC2)CC1 [Compound I-489],–,200 to 1000
CC(=O)NC1CCN(c2ccc(-n3ncc4c(=O)n(CC5(O)CCN(C(=O)C6CC6)CC5)cnc43)cc2)CC1 [Compound I-1208],1000 to 10000,–
Cc1ccc(-n2ncc3c(=O)n(CC4(O)CCN(C(=O)c5cnc(C)o5)CC4)cnc32)cc1 [Compound I-1514],200 to 1000,–
"CN1CCN(c2ccc(-n3ncc4c(=O)n(CC5(O)CCN(C(=O)C[C@@H](C(F)F)n6cccn6)CC5)cnc43)cc2)CC1 (single isomer, unassigned) [Compound I-827]",–,1000 to 10000
